Results published in patent publication US11633447B2, “Pharmaceutical composition and functional health food for preventing or treating macular degeneration” (LEMONEX INC., priority 2018, dated 2023).

Columns and labels:
ARPE-19 cells = experiment: Retinal pigment epithelial cell protection against blue light-induced photooxidation after A2E accumulation (cell counting kit-8 viability); assay type: cell-based; conditions: 17.04 μg/mL (30 μM) for 24 hours; 20 μM A2E; blue light 4,000 lux 10 minutes; difference control vs blue light group set to 100%
Protocol: Since it is already known that photooxidation occurs when retinal pigment epithelial cells accumulated with A2E are irradiated with blue light, it was confirmed whether cytotoxicity derived by irradiation with blue light after 20 μM A2E accumulation in ARPE-19 cells could be suppressed using the banaba leaf extract, guava leaf extract, and the mixture thereof. Specifically, all ARPE-19 cells were treated with A2E at a concentration of 20 μM for 24 hours, and then treated with 100 μg/mL of the banaba leaf extract, the guava leaf extract, and the mixture thereof in Example 1, respectively, or 17.04 μg/mL (30 μM) of lutein for 24 hours. Thereafter, the treated cells were irradiated with blue light (4,000 lux) for 10 minutes. 24 hours after blue light irradiation, cell viability of ARPE-19 cells was measured by a cell counting kit-8 (Dojindo Labs, Japan), and the percentage of cell viability of each treatment group was compared to the control not irradiated with blue light. Lutein was used as a positive control. […] By setting a difference in cell viability between the control not irradiated with blue light and the blue light irradiated group to be 100%, cell protective effects of each extract were estimated by calculating cell protective effects through a difference in cell viability between the blue light irradiated group and the treated group. […]

Balb-c mice = experiment: Blue light-induced macular degeneration animal model, thickness of outer nuclear layer (ONL) by H&E staining; assay type: in vivo; conditions: oral, once daily, 50 mg/kg, blue light 10,000 lux 1 hour per day for 14 days
Protocol: Balb-c mice (5 weeks old, males) were acclimated and bred for 2 days, and then orally administered with each of the banaba leaf extract, the guava leaf extract, the mixture thereof or lutein (50 mg/kg) once daily for 7 days. Then, after 24 hours of dark acclimatization, each of the extracts and the mixture and lutein was orally administered for 14 days, and 30 minutes later, followed by blue light irradiation at 10,000 lux for 1 hour per day. 24 hours after the blue light irradiation and the end of administration of the extract, the mice were sacrificed to an extract eyeball, and then, retinal cell protective effects were determined through tissue staining (FIG. 4).
The extracted eyeball tissue was fixed with a neutral buffered formalin solution. The fixed eyeball was washed with running water and was subjected to a dehydration process using alcohol. Thereafter, a clearing process was performed using Xylene, and proper rigidity was given to the tissue using paraffin. The eyeball was made into a predetermined shape of paraffin block, and then cut to 4 μm thickness. The cut eyeball was subjected to hematoxylin & eosin (H & E) staining. […] Then, a thickness of the outer nuclear layer (ONL) of the visual cell was measured by Image J software (National Institute of Health, […], Md., USA)), followed by counting the number of nuclei. […]

Question: What does the source list for `CC1=C[C@H](O)CC(C)(C)[C@H]1/C=C/C(C)=C/C=C/C(C)=C/C=C/C=C(C)/C=C/C=C(C)/C=C/C1=C(C)C[C@@H](O)CC1(C)C` [lutein]?
Answer: cell protective effect (cell viability) (ARPE-19 cells): 48.4%; ONL thickness change in administered groups (Balb-c mice): significantly increased ONL thickness; ONL protective effect (ONL thickness) (Balb-c mice; difference control vs blue light group set to 100%): 28.2%
